This is an account of results in patent US20190327974A1, “SYNERGISTS FOR IMPROVED PESTICIDES” (priority 2017, published 2019).

The target in data set [1] is bacterial AmpC β-lactamase (Escherichia coli, UniProt P00811). Put plainly: AmpC β-lactamase selectivity. Format: biochemical. As to the method:
To characterize the selectivity of boronic acids 1 to 5, they were assayed against AChE, the target of OP and carbamate insecticides (Table 1) as well as trypsin and bacterial AmpC β-lactamase. […] The toxicity of the hits against two human cell lines was further assessed.
To characterize the selectivity of boronic acids 1 to 5, they were assayed against the target of OP insecticides, AChE, as well as trypsin and bacterial AmpC β-lactamase (Table 1). AChE and αE7 are homologous, sharing the α/β-hydrolase fold and the same catalytic machinery, however the topology of their binding pockets is dissimilar (Jackson, C. J. et al. Structure and function of an insect α-carboxylesterase (αEsterase7) associated with insecticide resistance. Proc. Natl. Acad. Sci. U.S.A. 110, 10177-82 (2013) and Correy, G. J. et al. Mapping the Accessible Conformational Landscape of an Insect Carboxylesterase Using Conformational Ensemble Analysis and Kinetic Crystallography. Structure 24, 1-11 (2016).). Both trypsin and AmpC β-lactamase contain an activated serine nucleophile and oxyanion hole, however trypsin contains a serine-histidine-aspartic acid (Hedstrom, L. Serine protease mechanism and specificity. Chem. Rev. 102, 4501-4523 (2002).) while AmpC β-lactamase contains a serine-tyrosine-lysine catalytic triad (Dubus, A., et al. The roles of residues Tyr150, Glu272, and His314 in class C β-lactamases. Proteins Struct. Funct. Genet. 25, 473-485 (1996).).

A further data set concerns the target T1, DPP8 (Homo sapiens, UniProt Q6V1X1).
T1 construct: purchased ENZO
Nature of the data set: Protease selectivity panel. The settings on record: 100 μM compound, n = 2. Format: biochemical. As to the method: (§1) Test compounds were dissolved in 100% DMSO to make 10 mM stock. Final compound concentration in assay is […]. Compounds were tested in duplicate wells at single concentration and the final concentration of DMSO in all assays was kept at 1%. Five reference compounds, AEBSF, Carfilzomib, Granzyme B Inhibitor II, Dec-RVKR-CMK, and Teneligliptin hydrobromide, were tested in an identical manner with 8 concentration points at 5× dilutions.

In another data set the target is T2, Furin (Homo sapiens, UniProt P09958).
T2 construct: purchased R&D Systems
T2 sequence (P09958 108-794): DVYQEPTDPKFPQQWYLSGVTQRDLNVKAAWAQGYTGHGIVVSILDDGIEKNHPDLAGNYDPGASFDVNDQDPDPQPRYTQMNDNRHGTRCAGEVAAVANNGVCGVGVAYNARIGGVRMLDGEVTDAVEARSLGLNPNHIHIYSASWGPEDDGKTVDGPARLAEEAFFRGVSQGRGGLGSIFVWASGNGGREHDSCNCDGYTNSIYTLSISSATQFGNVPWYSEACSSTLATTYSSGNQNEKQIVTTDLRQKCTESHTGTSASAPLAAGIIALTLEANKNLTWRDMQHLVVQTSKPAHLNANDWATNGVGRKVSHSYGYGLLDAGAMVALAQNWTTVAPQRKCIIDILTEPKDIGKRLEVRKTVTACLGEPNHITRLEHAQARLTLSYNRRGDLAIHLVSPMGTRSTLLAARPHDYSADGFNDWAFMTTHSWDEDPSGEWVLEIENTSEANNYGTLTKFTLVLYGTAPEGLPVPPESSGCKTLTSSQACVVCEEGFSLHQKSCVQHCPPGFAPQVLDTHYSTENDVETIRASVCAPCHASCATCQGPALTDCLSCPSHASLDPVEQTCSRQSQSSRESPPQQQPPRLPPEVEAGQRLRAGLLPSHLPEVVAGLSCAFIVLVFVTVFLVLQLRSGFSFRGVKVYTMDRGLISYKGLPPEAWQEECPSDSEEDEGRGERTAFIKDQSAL
Put plainly: Protease selectivity panel. It is filed as biochemical. As to conditions: 100 μM compound, n = 2. As to the method:
as §1

A further data set deals with T3, GranzymeA (Homo sapiens, UniProt P12544).
T3 construct: purchased ENZO
T3 sequence (P12544 29-262): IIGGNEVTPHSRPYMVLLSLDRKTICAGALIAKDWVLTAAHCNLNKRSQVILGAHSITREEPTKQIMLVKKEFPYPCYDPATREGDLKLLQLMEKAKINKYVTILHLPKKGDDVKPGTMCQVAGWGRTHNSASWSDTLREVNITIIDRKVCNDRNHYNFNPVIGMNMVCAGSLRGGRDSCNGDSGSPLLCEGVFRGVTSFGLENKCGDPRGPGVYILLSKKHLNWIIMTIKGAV
Put plainly: Protease selectivity panel. Format: biochemical. As to conditions: 100 μM compound, n = 2. As to the method: as §1

A further data set concerns the target T4, GranzymeB (Homo sapiens, UniProt P10144).
T4 construct: purchased ENZO
Put plainly: Protease selectivity panel. As to conditions: 100 μM compound, n = 2. Format: biochemical. As to the method:
as §1

Another data set deals with T5, PSMB5 (Homo sapiens, UniProt P28074).
T5 construct: purchased BOSTON-BIOCHEM
Put plainly: Protease selectivity panel. As to conditions: 100 μM compound, n = 2. It is filed as biochemical. As to the method:
as §1

For the next data set, the target named is T6, PSMB6 (Homo sapiens, UniProt P28072).
T6 construct: purchased BOSTON-BIOCHEM
Put plainly: Protease selectivity panel. The settings on record: 100 μM compound, n = 2. Format: biochemical. On the procedure:
as §1

The target of another data set is T7, uPA (Homo sapiens, UniProt P00749).
T7 construct: purchased R&D Systems
Nature of the data set: Protease selectivity panel. As to conditions: 100 μM compound, n = 2. Format: biochemical. On the procedure: as §1

For data set [2], the system named is HB-2 and MDA-MB-231 human cell lines. Nature of the data set: Cell toxicity, two human cell lines HB-2 and MDA-MB-231. Format: cell-based. As to conditions: 48 h, up to 100 μM. As to the method: FIG. 13 depicts that boronic acids show little cell toxicity. Compounds 1-5 as well as 3.9 and 3.10 were incubated for 48 h with two different human cell lines HB-2 and MDA-MB-231 at 7 concentrations up to 100 μM. Cell viability was measured after 48 h using Cell Titer Glo assay.
A seven-point, two-fold dose response series, with a 100 uM as the upper limit and a DMSO-only control point was generated using an Echo 550 liquid handler (Labcyte Inc.) in 384-well plates. Subsequently, the human breast cell lines MDA-MB-231 (tumorigenic) and HB2 (non-tumorigenic) were seeded (1000 cells/well) using a multi-drop Combi (Thermo Fisher Scientific) on top of the compounds. Plates were then incubated at 37° C. and 5% CO2 for 48 hours upon which cell viability was assessed by adding CellTiter-Glo® (Promega) to the reaction. The luminescence signal was measured on a Pherastar FS multi-mode plate reader (BMG Labtech).

Data set [3] deals with Myzus persicae (Green peach aphid). Put plainly: CPE combined with boronic acid derivatives on small broad bean leaves. It is filed as in vivo. On the procedure: […] The treatment was performed with an agricultural nozzle (300 L per hectare) […]. A non-treated control condition were also evaluated in parallel. Statistical analysis of the data was then performed. When the leaves were totally dry, 3 leaves were sampled and infested with 3 wingless adults of M. persicae per leaf fragment.
• T+1 (DAT 1)—One day later the number of adults remaining on the leaves was counted. • T+3 (DAT 3)—3 days after treatment the aphid population was estimated; • T+7 (DAT 7)—7 days after treatment the development of aphid population was estimated.
3 bean leaves fragments per microbox*4 microbox per condition (1 condition is 1 formulation at 1 dose)*9 adult aphids per microbox*4 insecticides (3 chlorpyrifos derivates+clorpyrifos alone)*4 rates+2 controls (1 reference insecticide formulation at one dose and non-treated)*3 assessments timings (DAT+1, DAT+3 and DAT+7).

Data set [4] concerns Ostrinia nubilalis (European corn borer). Nature of the data set: CPE combined with boronic acid derivatives on corn leaves. As to conditions: for Percentage of efficacy: boronic acid alone 0.2 mg/ml. Format: in vivo. As to the method: Treatments were performed by spraying a volume of mixture corresponding to 200 l/ha. 4 boxes/condition.
Drying 1 h at 20° C.; Deposit of three leaf fragments per box on water agar (4 box/condition); Infection of each leaf fragment with 4 Ostrinia nubilalis (12 larvae/box); Incubation 18° C./28° C. […] The percentage of mortality was calculated for each assessment times. Statistical analysis of the data was performed with XLSTAT® software (ANOVAs followed by Newman-Keuls tests with a threshold of 5%, see Table below).

Molecules are shown by their SMILES.

T4 sequence (P10144 21-247): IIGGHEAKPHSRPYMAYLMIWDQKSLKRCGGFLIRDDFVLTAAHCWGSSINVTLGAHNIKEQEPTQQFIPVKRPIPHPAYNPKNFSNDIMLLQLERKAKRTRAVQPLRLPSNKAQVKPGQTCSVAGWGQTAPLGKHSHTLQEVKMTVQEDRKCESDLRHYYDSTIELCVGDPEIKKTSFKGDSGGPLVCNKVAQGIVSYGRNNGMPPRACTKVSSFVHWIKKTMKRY
T1 sequence (Q6V1X1 whole entry): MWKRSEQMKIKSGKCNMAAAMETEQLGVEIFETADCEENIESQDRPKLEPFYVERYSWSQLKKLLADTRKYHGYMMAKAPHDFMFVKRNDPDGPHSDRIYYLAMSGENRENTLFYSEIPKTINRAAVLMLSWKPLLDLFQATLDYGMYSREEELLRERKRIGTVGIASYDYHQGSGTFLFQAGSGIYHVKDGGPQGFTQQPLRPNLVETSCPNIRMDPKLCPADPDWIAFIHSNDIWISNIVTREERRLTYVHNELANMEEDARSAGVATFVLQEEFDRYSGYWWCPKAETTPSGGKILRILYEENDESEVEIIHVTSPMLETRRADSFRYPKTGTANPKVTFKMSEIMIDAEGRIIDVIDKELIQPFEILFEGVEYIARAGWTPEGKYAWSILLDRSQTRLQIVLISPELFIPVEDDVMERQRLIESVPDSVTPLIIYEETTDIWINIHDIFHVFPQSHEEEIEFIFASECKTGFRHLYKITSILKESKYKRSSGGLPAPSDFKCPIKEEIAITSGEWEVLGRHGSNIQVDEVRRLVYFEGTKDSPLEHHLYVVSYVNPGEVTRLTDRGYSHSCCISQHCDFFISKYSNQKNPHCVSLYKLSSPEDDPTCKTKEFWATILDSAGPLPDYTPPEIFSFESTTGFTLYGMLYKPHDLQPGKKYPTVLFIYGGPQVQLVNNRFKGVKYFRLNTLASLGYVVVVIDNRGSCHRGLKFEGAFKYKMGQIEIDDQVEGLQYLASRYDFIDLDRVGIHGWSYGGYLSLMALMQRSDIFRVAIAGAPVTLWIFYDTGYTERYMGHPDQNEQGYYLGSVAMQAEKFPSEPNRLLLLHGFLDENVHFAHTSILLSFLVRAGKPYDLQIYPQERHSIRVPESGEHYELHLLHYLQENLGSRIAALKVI
Sequence of bacterial AmpC β-lactamase (P00811 20-377): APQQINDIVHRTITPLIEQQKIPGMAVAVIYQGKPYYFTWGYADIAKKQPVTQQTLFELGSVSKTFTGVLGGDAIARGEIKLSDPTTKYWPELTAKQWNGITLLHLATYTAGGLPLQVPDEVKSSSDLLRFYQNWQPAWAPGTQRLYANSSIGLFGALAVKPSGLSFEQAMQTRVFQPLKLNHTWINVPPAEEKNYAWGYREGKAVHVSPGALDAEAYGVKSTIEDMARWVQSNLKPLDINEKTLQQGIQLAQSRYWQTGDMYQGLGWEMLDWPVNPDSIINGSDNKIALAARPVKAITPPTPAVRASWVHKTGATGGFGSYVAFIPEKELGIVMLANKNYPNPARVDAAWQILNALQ

Broadly, the Ki is the dissociation constant of the complex between target and ligand, obtained from inhibition or displacement. A word on the inhibition: it is the change of the read-out against control, counted positive when it falls. Regarding `OB(O)c1cc(Br)cc(N2CCCC2)c1` [Compound 3], the Ki in data set [1] is 0.06 µM. The inhibition at 100 µM stood at 42% against DPP8; 1% against Furin; 12% at GranzymeA; 3% against GranzymeB; 3% at PSMB5; 16% against PSMB6. On uPA, the inhibition at 100 µM turned out to be 67%.

Take `OB(O)c1cc(Br)cc(OCc2ccccc2)c1` [Compound 3.9]: the inhibition at 100 µM against DPP8 was 53%; at Furin it was -2%; at GranzymeA, 23%; against GranzymeB it was 17%; against PSMB5 it was 34%; against PSMB6, 54%. Further, the inhibition at 100 µM against uPA turned out to be 40%. For the same compound, the “cellular toxicity” value in [2] is “do not exhibit any cellular toxicity up to 100 μM”.

For the compound `OB(O)c1cc(Br)cc(Oc2ccccc2)c1` [Compound 3.10, 3-Bromo-5-phenoxyfenylboronic acid], the inhibition at 100 µM against DPP8 was 37%; against Furin, -5%; against GranzymeA it was 12%; on GranzymeB it was 11%; on PSMB5, 2%; against PSMB6, 27%. Also, the inhibition at 100 µM at uPA stood at 32%. Moreover, the “toxicity of the boronic acid derivative alone (in words)” value is recorded as “No significant toxicity” in data set [3] (ANOVAs followed by Newman-Keuls tests, threshold 5%); “Absence of significant toxicity” in data set [4] (0.2 mg/ml, some larvae death with 3.10 and 3.7 at 6 DAT). In addition, in [3] (CPE at 2.8 g a.i./ha and 5.6 g a.i./ha), the “insecticidal efficacy of CPE on addition of the compound (in words)” value is reported as “increased”. Besides, the “efficacy on addition of the compound compared with CPE used alone (in words)” value in [4] (1 DAT and 3 DAT at the dose of 15.6 g a.i./ha) was “increased significantly the efficacy”. Further, the Percentage of efficacy is 0% in [4] (1 DAT), 0% in [4] (3 DAT) and 22% in [4] (6 DAT). In data set [2], the “cellular toxicity” value is listed as “do not exhibit any cellular toxicity up to 100 μM”.
